# PubChem BioAssay AID2305 (GlaxoSmithKline (GSK), 2010)
# Where “and” joins values, the source holds several entries; their conditions need not be identical. Equal entries are not always repeated.
# Test system: P. falciparum 3D7 growth, pLDH absorbance
# Test: P. falciparum 3D7 growth inhibition, dose response, strain 3D7 (AID 2305)
row,SMILES,IC50
1,CC(C)=CCN1CCC(C(=O)Nc2ccc(-c3nc4ccccc4[nH]3)cc2)CC1,910 nM
2,OCCn1c(CNCCCNc2nc3ccccc3[nH]2)cc2c(Cl)cc(Cl)cc21,810 nM
3,COc1ccc2nc(C)cc(NN=Cc3ccc([N+](=O)[O-])o3)c2c1,700 nM
4,Nc1ncc(-c2ccccc2)cc1-c1cccc2ncccc12,270 nM
5,O=S(=O)(NC1=NCCC1)c1cccc(Nc2nc(C(F)(F)F)nc3ccccc23)c1,950 nM
6,CN1CCN(CCCSc2ccc3c(c2)ncn3-c2cc(OCc3ccccc3C(F)(F)F)c(C(N)=O)s2)CC1,440 nM
7,O=C1CSc2ccc(CNC3CCN(CCc4c(F)cnc5ccc(F)cc45)CC3)nc2N1,520 nM
8,CCOc1ccccc1C1CCN(CCCCNC(=O)c2ccc(NC(=O)c3ccc(Cl)cc3)cc2)CC1,850 nM
9,CCN(CC)CCCC(C)Nc1c2ccccc2nc2ccc3ccccc3c12 (stereo not given),1040 nM
10,NC(N)=Nc1nccc(NCc2ccccc2)n1,890 nM
11,CC(C)(C)CC(C)(C)c1ccc(O)c(C(=O)Nc2cccc([N+](=O)[O-])c2)c1,590 nM
12,COCCn1c(C)cc(C(=O)CN2C(=O)NC(C)(c3ccc(C(C)(C)C)cc3)C2=O)c1C (stereo not given),470 nM
13,CCCCC(CC)CN1C(=O)C(c2ccccc2)(c2ccccc2)N=C1N (stereo not given),190 nM
14,CCCc1ccccc1Nc1nc(C)cc(N(CC)CCCN2CCCCC2)n1,620 nM
15,CC(Nc1ncc(-c2ccsc2)c(-c2nccs2)n1)c1ccc2c(c1)OCCO2 (stereo not given),170 nM
16,NC(=O)c1ccccc1Nc1nc(Nc2ccc(N3CCOCC3)cc2)ncc1[N+](=O)[O-],880 nM
17,CCOc1ccc(Br)cc1/C=C/C(=O)Nc1ccc2c(c1)CCCN(C)C2,1050 nM
18,O=C(Nc1ccc(S(=O)(=O)N2CCCC2)cc1)c1cc(-c2cccnc2)nc2ccc(Cl)cc12,300 nM
19,O=C(NC1CCN(c2ccnc3ccccc23)C1)c1cccc(C(F)(F)F)c1 (stereo not given),900 nM
20,O=C(Nc1ccccc1)c1ccc(N2CCC(COc3cccc(C(F)(F)F)c3)CC2)nc1,300 nM
21,COc1ccc(-c2ccc(NC(=O)c3ccc(Cl)cc3)cc2)cc1CN(C)CCN(C)C,670 nM
22,CCNc1cc(C(=O)N[C@@H](Cc2ccccc2)[C@H](O)CNCc2cccc(OC)c2)c(OC)c(N2CCCCS2(=O)=O)c1,690 nM
23,CCc1ccc(C2=Nn3c(nnc3-c3cccs3)SC2)cc1,1290 nM
24,O=C(Nc1ccc(OC2CCN(Cc3ccc(F)cc3)CC2)c(Cl)c1)c1ccc(F)cc1,190 nM

row,SMILES,IC50
1,Cc1cccc2[nH]c(-c3ccc(-c4cccc(CNCc5cccc(N)c5)c4)s3)nc12,520 nM
2,O=c1cc(NCCCNCc2ccc(Cl)c(Cl)c2)[nH]c2cc(Cl)ccc12,920 nM
3,O=C(Nc1ccc(Cn2ncc(N3CCCNCC3)c(Cl)c2=O)cc1)Nc1cc(F)cc(C(F)(F)F)c1,770 nM
4,CC(C)c1ccc(NC(=O)c2ccc(NCCCN(C)Cc3ccccc3)c([N+](=O)[O-])c2)cc1,680 nM
5,COc1ccc2nccc(N3CCC(SCCNCc4cc5c(cn4)OCCO5)C3)c2n1 (stereo not given),770 nM
6,CN(C)Cc1cccc(-c2ccc3ccnc(N)c3c2)c1,120 nM
7,C[C@H](Cc1ccc(CCc2ccc(C[C@@H](C)NC[C@H](O)c3cccc(Cl)c3)cc2)cc1)NC[C@H](O)c1cccc(Cl)c1,940 nM
8,CC(=O)Nc1ccc(C(=O)Nc2ccc(-c3cccc(-c4nc5ccc(F)cc5[nH]4)c3)cc2)cn1,230 nM
9,O=C(Nc1cccc(C(F)(F)F)c1)c1cccc(S(=O)(=O)NCC2CCN(CC3CCCCC3)CC2)c1,1470 nM
10,O=C(Nc1ccc(Cn2ncc(N3CCCNCC3)c(Cl)c2=O)cc1)Nc1cc(Cl)cc(Cl)c1,870 nM
11,CCc1ccc(NC(=O)N(CCCN2CCN(C)CC2)Cc2csc(-c3ccc(CNCc4ccccc4)cc3)n2)cc1,1010 nM
12,COc1ccc(Br)cc1C1[C@@H]2C(=O)N(c3ccc(Br)cc3)C(=O)[C@@H]2C2(C(=O)O)CC(OCc3ccccc3)CN12 (stereo not given in full),190 nM
13,Cc1ccc(N2CCN(C(=O)c3cccc(-c4cncc5nc(-c6ccco6)n(C)c45)c3)CC2)nc1,600 nM
14,N=C(N)c1ccc(Nc2nc(Nc3ccc(-c4ccccc4)cc3)ncc2[N+](=O)[O-])cc1,800 nM
15,O=C(O)C1Cc2c([nH]c3ccccc23)C(c2ccc(Cl)cc2Cl)N1 (stereo not given),950 nM
16,CC1CCN(Cc2c(O)ccc3c(CN4CCC(C)CC4)c(O)ccc23)CC1,130 nM
17,CN(C)CCN(C)Cc1nc(-c2ccc3c(Nc4ccc(Oc5ccccc5)cc4)ccnc3c2)cs1,210 nM
18,N#Cc1ccc2c(c1)CCN(CCC1CCC(NC(=O)/C=C/c3nc4ccccc4s3)CC1)CC2 (stereo not given),830 nM
19,CCCOc1ccc(CCNCCCCNCCc2ccc(OCCC)c3ccccc23)c2ccccc12,920 nM
20,CCOC(=O)N/N=C/[C@H](CCc1ccccc1)NC(=O)[C@H](CC(C)C)NC(=O)c1cc2cccc(OC)c2o1,880 nM
21,CC(=O)N(C)C1CCN(Cc2ccc(-c3cccc(-c4nc5ccc(F)cc5[nH]4)c3)cc2)C1 (stereo not given),600 nM
22,O=C(C=Cc1ccc(F)c(Br)c1)NC1CCC(CN2CCC(c3c[nH]c4ccccc34)CC2)CC1 (stereo not given),790 nM and 840 nM
23,Cn1nc(-c2cccc(CN[C@@H]3CCc4ccc(O)cc43)c2)c2cnc(NC3CCCC3)nc21,740 nM
24,Cc1cccc2[nH]c(-c3cccc(-c4ccc(NC(=O)C(C)C(=O)NC(C)C)cc4)c3)nc12 (stereo not given),1000 nM

row,SMILES,IC50
1,CC(C)CCNc1nc2ccccc2nc1Nc1cccc(C(F)(F)F)c1,910 nM
2,COc1ccc(Nc2nc(NCc3ccc(-n4ccnc4)cc3)cc(-c3ccc(OC)cc3)n2)cc1,830 nM
3,c1cc(C2=N[C@H]3CCCC[C@@H]3N2)ccc1OCCCCCOc1ccc(C2=N[C@@H]3CCCC[C@H]3N2)cc1,230 nM
4,CC(=O)c1ccccc1OCCSc1nnc(Cc2cccs2)n1C1CCCCC1,920 nM
5,CN(C)CCOc1cc(NC(=O)/C=C/c2cccc3ccccc23)ccc1I,1260 nM
6,CCc1cc(OC)ccc1C1CCN(CCCCNC(=O)c2ccc(NC(=O)c3ccc(Cl)cc3)cc2)CC1,1070 nM
7,CCCCCCCCc1c(C)[nH]c(C)c(I)c1=O,740 nM
8,CCNc1cc(C)nc(Nc2ccc(NC(=O)c3ccc(OC)c(OC)c3)cc2)n1,1070 nM
9,CCN(CC)C(=NCCCCCCN=C(NC(N)=NCc1ccc(Cl)cc1Cl)N(CC)CC)NC(N)=NCc1ccc(Cl)cc1Cl,220 nM
10,Cc1nc2c(c(O)c1Cl)-c1ccc(Oc3cccc(C(F)(F)F)c3)cc1C2=O,40 nM
11,CCCCCCn1c(Sc2ccc(C#N)c([N+](=O)[O-])c2)nnc1-c1cccc(Cl)c1,610 nM
12,CC(=O)N1N=C(c2ccc(Cl)cc2)Sc2c1nc(-c1ccccc1)n2C(C)=O,490 nM
13,CCCCCC(=O)N1CCOC(CCN2CCc3c(c4ccccc4n3C)C2)(c2ccc(Cl)c(Cl)c2)C1 (stereo not given),980 nM
14,Cc1nc2ccc(/C=C/C(=O)NC3CCC(CCN4CCc5ccc(C#N)cc5CC4)CC3)cc2[nH]1 (stereo not given),1140 nM
15,CN1CCN(CC(=O)Nc2cccc(-c3cccc(-c4nc5ccc(F)cc5[nH]4)c3)c2)CC1,740 nM
16,CCN(CC)c1ccc(C=CC(=O)NCCN2CCC(N(C)C3CCCCC3C)CC2)cc1 (stereo not given),960 nM
17,CC(C)[C@@H](NC(=O)NC1CCC(CCN2[C@@H]3CC[C@H]2CC(OC(=O)C(CO)c2ccccc2)C3)CC1)C(O)(c1ccccc1)c1ccccc1 (stereo not given in full),810 nM
18,OCc1ccc(-c2cncc(Nc3ccc(F)c(Cl)c3)c2)cc1,90 nM
19,Cn1cnc(-c2ccc3c(c2)CCN(CCC2CCC(NC(=O)/C=C/c4ccc(F)cc4)CC2)CC3)c1 (stereo not given),900 nM
20,CC(C)c1ccc(NC(=O)c2ccc(CN3CCCN(Cc4cccc(O)c4)CC3)cc2)cc1,680 nM
21,CC(C)(CNCc1cccc(Oc2ccccc2)c1)c1nc(-c2ccc(Cl)c(O)c2)c(-c2ccnc(N)n2)[nH]1,760 nM
22,CCN(CC)CCN(Cc1ccc(-c2ccc(C(F)(F)F)cc2)cc1)C(=O)Cn1c(CCc2cc(F)ccc2F)nc(=O)c2ccccc21,830 nM
23,CCc1cn2c3c(cc(C(=O)N[C@@H](Cc4cccc(F)c4)[C@H](O)CNC4CC4)cc13)N(C)S(=O)(=O)CC2,140 nM
24,CC(C)N1CCC(N(Cc2ccc(-c3ccc(C(F)(F)F)cc3)cc2)C(=O)Cn2c(CCc3cccc(F)c3F)nc(=O)c3cccnc32)CC1,640 nM

row,SMILES,IC50
1,O=C(Nc1ccccc1)OCCOc1ccc(CC2SC(=O)NC2=O)cc1 (stereo not given),370 nM
2,Fc1cccc(-c2ccc3c(c2)CC(NCc2c[nH]c4cnccc24)C3)c1 (stereo not given),480 nM
3,CCc1cn2c3c(cc(C(=O)N[C@@H](Cc4cccc(F)c4)[C@H](O)CNC4CCOCC4)cc13)N(C)S(=O)(=O)CC2,70 nM
4,CCCC(C)Nc1nc(C)cc(NCCC(=O)Nc2ccc(OC)cc2)n1 (stereo not given),1380 nM
5,CC(C)c1ccc(NC(=O)c2ccc(C(=O)NCC3CCN(CC4CCCCC4)CC3)cc2)cc1,900 nM
6,CC(C)c1ccc(NC(=S)NN=Cc2ccccn2)cc1,720 nM
7,COc1ccc2nccc(NCC3(O)CCC(NCc4cc5c(cn4)OCCO5)CC3)c2n1 (stereo not given),660 nM
8,Cc1ccc(Nc2nc(NN=Cc3ccccc3[N+](=O)[O-])nc(Nc3ccc([N+](=O)[O-])cc3)n2)cc1C,690 nM
9,CCOC(=O)c1ccc(N2CCN(c3cc(Cl)ccc3C)CC2)c(NC(=O)Nc2ccc(Cl)c(Cl)c2)c1,580 nM
10,Cc1cc(N(C)C)nc(Nc2ccc(NC(=O)c3cccc(F)c3)cc2)n1,1000 nM
11,COc1cc2nccc(Nc3ccc(Oc4ccccc4)cc3)c2cc1OC,680 nM
12,O=C(Nc1cccc(Cl)c1Cl)N1CCc2cc3nccc(N4CCN5CCC[C@H]5C4)c3cc21,1040 nM
13,O=C1c2ccccc2C(=O)N1c1ccc(S(=O)(=O)N2CCOCC2)cc1,1260 nM
14,Oc1ccc(Br)cc1-c1nc2ccc(Cl)cc2nc1-c1cc(Br)ccc1O,790 nM
15,Cc1ccccc1C1CCN(C2CCC(NC(=O)c3cc4cc(C(C)C)ccc4[nH]3)CC2)CC1 (stereo not given),690 nM
16,Cc1cccc(CN2CCC(Oc3ccc(NC(=O)c4cccs4)cc3Cl)CC2)n1,840 nM
17,CN(C)CCNC(=O)c1ccc2c(c1)n(C1CCN(S(=O)(=O)c3ccc(-c4ccccc4)cc3)CC1)c(=O)n2CC1CCCCC1,620 nM
18,Cc1cccc2[nH]c(-c3ccc(-c4cccc(NC(=O)NCc5ccc(F)cc5)c4)cc3)nc12,150 nM
19,COc1ccc2nccc([C@@H](O)CN3CCC(c4cc(-c5ccc(Cl)cc5)n[nH]4)CC3)c2n1,740 nM
20,O=C(Nc1cccc(-c2cccc(CN3CCCC3)c2)c1)c1cccc(Cl)c1,1180 nM
21,CC(CCc1ccc(OCc2ccccc2)cc1)NCC(O)c1ccccc1 (stereo not given),1100 nM
22,O=C([C@@H]1CCCCN1c1ccc([N+](=O)[O-])c2ccccc12)N1CCN(c2ncccn2)CC1,200 nM
23,CC(Cc1ccc(SCCSc2ccccc2)cc1)NCC(O)c1cccc(Cl)c1 (stereo not given),370 nM
